Assay results taken from patent US20200188297A1, “LXR Agonist in Topical Ophthalmic Formulation for Treatment of Dry-Eye Disorder” (eyeNOS, Inc., priority 2018, published 2020).
Read-outs that look alike come from different tables or passages of the source.

Experiments:
[1] = system: human corneal epithelial cells (HCE-T); experiment: Multiplex cytokine expression analysis, hyperosmolar stress insult; format: cell-based; details: 200 nM, preincubation 1 hour, 600 mOsm for 20 hours
Description: The anti-inflammatory effects of T0901317 were studied on in-vitro cell culture of human corneal epithelial cells (HCE-T). HCE-T cells were grown in DMEM/F12 (1:1), 5% fetal bovine serum, penicillin-streptomycin, […] insulin, 10 ng/ml human recombinant epidermal growth factor and 0.5% dimethyl sulfoxide in 5% CO2 at 37° C. To simulate dry-eye conditions, the cells were exposed to hyperosmolar stress insult as described in Chen et al, “Hyperosmolarity-Induced Cornification of Human Corneal Epithelial Cells Is Regulated by JNK MAPK” (February 2008) Investigative Ophthalmology & Visual Science, 49(2):539-549. Confluent HCE-T were passaged into 12-well plates containing KSFM media (keratinocyte-SFM media) for 24 hours, and then NaCl was added to wells in concentrations to produce media osmolarities in the range of 350-800 mOsm. Multiplex cytokine expression analysis was performed to determine the anti-inflammatory effects of T0901317 (at 200 nM).

retinoid X receptor = details: read-out: EC50 for activation of the retinoid X receptor; cited from earlier work
[2] = system: liver X receptors (LXRα, LXRβ); details: cited from earlier work
[3] = system: human corneal epithelial cells (HCE-T); experiment: Multiplex cytokine expression analysis, LPS-induced secretion; format: cell-based; details: LPS 10 ng/ml, preincubation with compound
Description: The anti-inflammatory effects of T0901317 were studied on in-vitro cell culture of human corneal epithelial cells (HCE-T). […] Multiplex cytokine expression analysis was performed to determine the anti-inflammatory effects of T0901317 (at 200 nM). […] Lipopolysaccharide (LPS)-induced (10 ng/ml) secretion of IL-17, IL-18, and IFNγ was also examined. […] Topical application is not expected to result in activation of the pregnane X receptor (PXR), supporting the notion that the anti-inflammatory effects observed here, both in-vivo and in-vitro, can be attributed to LXR activation.

[4] = system: human corneal epithelial (HCE-T) cells; experiment: ZO-1 immunocytochemistry (barrier function) under hyperosmolar stress; format: cell-based; details: 0.05 μM in DMSO, pre-treated one hour; 50 mM NaCl overnight; FIG. 20
Description: The corneal epithelium serves as a physiological barrier. However, inflammation and the ensuing oxidative stress can impair barrier function and contribute to the exacerbation of inflammatory processes and increase susceptibility to other ocular surface conditions, such as corneal keratitis. The effect of ouabagenin on the barrier function of human corneal epithelial (HCE-T) cells was tested in in-vitro experiments. The cells were seeded at 25,000 cells/well in 8-chamber slides. Cells were incubated for 3 days at 37° C. until confluent. Cells were pre-treated with DMSO (vehicle) or ouabagenin (0.05 μM in DMSO). One hour later, cells received treatment of 0 (media), 25, 50, or 75 mM NaCl to mimic hyperosmolar conditions. Cells were incubated overnight at 37° C.
Zona occludens 1 (ZO-1) is a tight junction protein that is involved in the barrier function of corneal epithelium. The presence of ZO-1 (or absence thereof) is an indicator of the health of this barrier. In this experiment, immunocytochemistry for ZO-1 was performed on the HCE-T cells after the overnight incubation. Slides were imaged under a fluorescent microscope.

| Structure (SMILES) | hyperosmolar stress-induced secretion of IL-12 ([1]; FIG. 19B) | hyperosmolar stress-induced secretion of IL-17 ([1]; FIG. 19C) | EC50 (retinoid X receptor) | LXR subtype selectivity [2] | LPS-induced secretion of IL-17 ([3]; FIG. 19D) | LPS-induced secretion of IL-18 ([3]; FIG. 19E) | LPS-induced secretion of IFNγ ([3]; FIG. 19F) | LXR subtype selectivity ([2]; literature reports) | ZO-1 at the cell junctions (barrier function) [4] |
| --- | --- | --- | --- | --- | --- | --- | --- | --- | --- |
| O=S(=O)(c1ccccc1)N(CC(F)(F)F)c1ccc(C(O)(C(F)(F)F)C(F)(F)F)cc1 [T0901317] | fully suppressed | fully suppressed | 5 µM | selective for the LXRα subtype | suppressed | suppressed | suppressed |  |  |
| C[C@]12C[C@@H](O)[C@H]3[C@@H](CC[C@]4(O)C[C@@H](O)C[C@@H](O)[C@]34CO)[C@@]1(O)CC[C@@H]2C1=CC(=O)OC1 [ouabagenin] |  |  |  |  |  |  |  | LXRβ-subtype specific agonist | protected against this loss of ZO-1 barrier function |
